The record followed here is US10722505B2, “Substituted 2,4 diamino-quinoline as new anticancer agents” (GENOSCIENCE PHARMA, priority 2014, dated 2020).

Structures can show the parent of a compound that is named as a salt.

The test system of experiment [1] is LI0050 HCC patient derived cells. Nature of the experiment: CellTiter-Glo growth inhibition, HCC patient-derived cells LI0050. It is filed as cell-based, human. As to conditions: Homo sapiens; LI0050, 72 hours. The method, then:
(§1) The patient derived Hepatocellular Carcinoma (HCC) cells were maintained in medium respectively described in table 15 containing 1% penicillin-streptomycin (Life Technologies, 15070-063), with a supplements for primary cell culture (PCS) containing hydrocortisone (50 nM), Epidermal Growth Factor (20 ng/ml), β-fibroblast Growth Factor (10 ng/ml), Heparin (2 μg/ml) ITS liquid media supplement (1×) and non-essential amino acid (NEAA, 0.01 mM, 1×). The primary cell were cultured in a humidified atmosphere (95% relative humidity) with 5% CO2 at 37° C.
(§2) The cell growth inhibition assay was performed as described previously in example 5 using the CellTiter-Glo® luminescent cell viability assay as described by the manufacturer (Promega, Ref G7571). The number of cells seeded per well (in 96-Well Flat Clear Bottom Black Polystyrene TC-Treated Microplates, Cat #3340, Corning®) is described in the table 16. A backseal black sticker (Cat #6005189, Perkin Elmer) was placed to the bottom of each plate before recording CellTiter-Glo® luminescence.
(§3) The experimental data are analyzed using a computer program, Graphpad Prism V 5.0 (GraphPad Software, Inc. La Jolla, Calif.) and EC50 values were determined as the dose of compound required to reduce absorbance values to 50% of the signal obtained for vehicle treated cell cultures and were a mean of at least three independent experiments.
(In general: Cellular ATP, detected with luciferase, serves as a proxy for viable cell number.)

Experiment [2] concerns LI1098 HCC patient derived cells. Nature of the experiment: CellTiter-Glo growth inhibition, HCC patient-derived cells LI1098. It is filed as cell-based, human. The settings on record: Homo sapiens; LI1098, 72 hours. The procedure: as §1, §2, §3
In experiment [3] the test system is CPP36 liver metastatic CRC patient-derived cells. Nature of the experiment: CellTiter-Glo growth inhibition, liver metastatic CRC patient-derived cells CPP36. It is filed as cell-based. As to conditions: Homo sapiens; CPP36, 72 h. From the text:
(§4) Patient derived liver metastasis cells (CPP19, 30, 36 and CPP45—see table 1 for clinical descriptions) were maintained in complete DMEM (Gibco) with 10% FBS. Cells were obtained from biopsies provided by CHU-Caremeau (Nimes, France) within an approved protocol. Signed informed consents were obtained from patients prior to samples acquisition in accordance with all ethical and legal aspects. Tumors were washed, minced into fragments (<2 mm^3) and digested with liberase H (0.26 U/mL, Roche) resuspended in Accumax (Sigma-Aldrich). After 2 hours at 37° C., cell suspension was filtered through a […] to obtain a single cell suspension and plated in DMEM medium, supplemented with FBS, glutamine, antibiotics and non-essential aminoacids. When a monolayer of patient-derived tumor cells was formed, cells were detached using trypsin/EDTA and resuspended in DMEM with 10% FBS (for adherent cells) or defined M11 media (for sphere formation). Cells were cultured in a humidified atmosphere at 37° C. and 5% CO2.
(§5) Cells were plated at 10^4 cells per well in P96 well plates in DMEM with 10% FBS. After 24 hours, cells were treated with compound 2-3 and cell viability was assessed 72 h post-treatment by CellTiter-Glo® Luminescent Cell Viability Assay (Promega). EC50 were calculated using GraphPad Prism Software v6 (Graphpad Software, Inc La Jolla, Calif.). […]

The next experiment concerns Huh-7 cell line. Kind of experiment: CellTiter-Glo growth inhibition assay, Huh-7. The settings on record: Homo sapiens; Huh-7, hepatocellular carcinoma, 72 h. It is filed as cell-based. The method, then:
(§6) All cell lines were maintained in medium containing 1% penicillin-streptomycin (Dutscher, P06-07100) and 10% Fetal Bovine Serum (Gibco, W3387L) except 20% for KG-1 cell line and PBMC, and cultured at 37° C. with 5% CO2.
HepG2, Huh7, HCT-116, MDA-MB-231 and A375 cell lines were cultured in Dulbecco's modified Eagle's medium (Dutscher, L0103).
(§7) Cell viability was measured using the CellTiter-Glo® luminescent cell viability assay as described by the manufacturer (Promega, Ref G7571) using an Infinite F200Pro luminometer (Tecan). Briefly, for adherent cells, cells were plated onto 96-well plates (white with clear bottom) in 90 μL of media per well and were allowed to grow overnight before the assay. For cells growing in suspension, cells were plated onto 96-well plates immediately before the assay.
(§8) Compounds were added at different concentrations to each well, and cell cultures were incubated for 72 h. Vehicle (H2O) was used as a control, and all compounds were tested in a constant percentage of H2O. After addition of 100 μL of CellTiter-Glo®, luminescence was measured using an Infinite F200Pro (Tecan). EC50 values were determined as the dose of compound required to reduce luminescent values to 50% of the signal obtained for untreated cell cultures. The experimental data were analyzed using a computer program, Graphpad Prism v5 (GraphPad Software, Inc. La Jolla, Calif.). […]

For the next experiment, the system named is MOLM-14 cell line. Kind of experiment: CellTiter-Glo cell viability / growth inhibition assay, MOLM-14 (Example 5). Type of experiment: cell-based. The settings on record: Homo sapiens, 72 h. The method, then:
as §6
MOLM-14 cell line was maintained in MEM alpha medium (Gibco, 22561-021).
as §7
(§9) Compounds were added at different concentrations to each well, and cell cultures were incubated for 72 h. Vehicle (H2O) was used as a control, and all compounds were tested in a constant percentage of H2O. After addition of 100 μL of CellTiter-Glo®, luminescence was measured using an Infinite F200Pro (Tecan). EC50 values were determined as the dose of compound required to reduce luminescent values to 50% of the signal obtained for untreated cell cultures. The experimental data were analyzed using a computer program, Graphpad Prism v5 (GraphPad Software, Inc. La Jolla, Calif.).
(§10) All experiments were at least done in duplicate and repeated two independent times.

Experiment [4] relates to LI0612 HCC patient derived cells. Kind of experiment: CellTiter-Glo growth inhibition, HCC patient-derived cells LI0612. Type of experiment: cell-based, human. As to conditions: Homo sapiens; LI0612, 72 hours. The method, then:
as §1, §2, §3

The next experiment relates to MRC-5 cell line. Nature of the experiment: CellTiter-Glo growth inhibition assay, MRC-5. It is filed as cell-based. As to conditions: MRC5; MRC-5, human fetal lung fibroblast, 72 h. The procedure:
as §6
MRC-5 cell line was maintained in MEM (Dutscher, L0416).
as §7, §9, §10

A further experiment concerns ARPE-19 cell line. Kind of experiment: CellTiter-Glo growth inhibition assay, ARPE-19. The settings on record: ARPE-19, human retinal pigmented epithelium, 72 h. It is filed as cell-based. The method, then: as §6
ARPE-19 cell line was cultured in DMEM:F12 medium (Dutscher, L0093).
as §7, §8

The subject of experiment [5] is LI1005 HCC patient derived cells. Nature of the experiment: CellTiter-Glo growth inhibition, HCC patient-derived cells LI1005. It is filed as cell-based, human. The settings on record: Homo sapiens; LI1005, 72 hours. The procedure:
as §1, §2, §3

For experiment [6], the system named is CPP19 liver metastatic CRC patient-derived cells. Kind of experiment: CellTiter-Glo growth inhibition, liver metastatic CRC patient-derived cells CPP19. Type of experiment: cell-based. The settings on record: Homo sapiens; CPP19, 72 h.
From the text: as §4, §5

The test system of experiment [7] is LI0801 HCC patient derived cells. Nature of the experiment: CellTiter-Glo growth inhibition, HCC patient-derived cells LI0801. Type of experiment: cell-based, human. The settings on record: Homo sapiens; LI0801, 72 hours. The method, then:
as §1, §2, §3

Another experiment deals with MV4-11 cell line. Kind of experiment: CellTiter-Glo growth inhibition assay, MV4-11. It is filed as cell-based. The settings on record: Homo sapiens; MV4-11, biphenotypic B myelomonocytic leukemia, 72 h. The procedure: as §6
KG-1 and MV4-11 cell line were maintained in Iscove's modified Dulbecco's medium (Dutscher, L0190).
as §7, §8

`CC(C)(C)NC1CCN(c2cc(NCc3ccc(Cl)cc3)nc3ccccc23)CC1` [Compound 2-3, 2-(4-chlorobenzylamino)-4-(4-tert-butylaminopiperidin-1-yl)-quinoline hydrochloride salt]: the EC50 (usually the concentration that produces a half-maximal response) in experiment [1] came out at 3500 nM; in experiment [2], 7000 nM; in [3] it was 1450 nM; in the experiment on Huh-7 cell line, 1700 nM; in the experiment on MOLM-14 cell line (MOLM-14, acute myeloïd leukemia, FLT3-ITD heterozygote+/−), 2200 nM; in experiment [4] it was 6900 nM. In addition, the EC50 in the experiment with MRC-5 cell line was roughly 3400 nM; in the experiment on ARPE-19 cell line, roughly 6900 nM; in experiment [5] it was 3200 nM; in experiment [6], 1880 nM; in [7], 2100 nM; in the experiment with MV4-11 cell line, 2300 nM. Moreover, the viability – broadly, a read-out of living cells in per cent, often relative to untreated cells – at 4 µM in the experiment on MOLM-14 cell line (MOLM-14, 4 μM) stood at 31.8%. The same compound yielded a viability at 10 µM with MOLM-14 cell line (MOLM-14, 10 μM) of 0.3%.
